Where two headings read alike, the source gives them in different places.
What was measured:
[1] = system: HT29 human colon cancer cells; experiment: In vitro cytotoxicity (MTT assay) in HT29 cells with or without NTR; format: cell-based; details: for IC50: Homo sapiens, HT-29, HT29, 24 h, MTT
Method: (§1) The cytotoxicity of the target compounds 1c–6c were evaluated in MCF-7 human breast cancer cells and HT29 human colon cancer cells. These two cell lines were chosen because 5′-DFUR is currently used to treat breast and gastrointestinal tumors. The cells were incubated with the target compounds at various concentrations for 24 h in the presence or absence of NTR. The cell viability and proliferation behavior were assessed by 3-(4,5-dimethylthiazol-2-yl)-2,5-diphenyltetrazolium (MTT) assay. The half-maximal inhibitory concentration values of the tested compounds for inhibiting cell proliferation are shown in Table 1.
(§2) MCF-7 human breast cancer cells or HT29 human colon cancer cells purchased from the National Collection of Authenticated Cell Cultures were cultured in RPMI 1640 medium, and McCoy’s 5A medium supplemented with 10% fetal bovine serum and 1% penicillin-streptomycin in a humidified 5% CO2 incubator at 37 °C. Cells in the logarithmic growth phase were inoculated into 96-well plates at a density of 1.0 × 10^4 cells per well and cultured for 24 h. The target compounds were dissolved in DMSO and diluted in medium to different concentrations. The cells were then incubated with different concentrations of the target compound for 24 h. The cells in the NTR treatment group were incubated with various concentrations of compounds, NTR (final concentration, 50 µg/mL) and NADH (final concentration, 2 mM) for 24 h. Cell viability and proliferation were measured by MTT assay. Cell viability was calculated according to the following formula: cell viability (%) = (OD value of treatment group–OD value of blank group)/(OD value of control group–OD value of blank group) × 100. The half-maximal inhibitory concentration values were calculated from concentration-response curves using GraphPad PRISM (version 5.0, GraphPad, San Diego, CA, USA).

[2] = system: MCF-7 human breast cancer cells; experiment: In vitro cytotoxicity (MTT assay) in MCF-7 cells with or without NTR; format: cell-based; details: for IC50: Homo sapiens, MCF7, MCF-7, 24 h, MTT
Method: as §1, §2

[3] = Stability of target compounds in mouse plasma, HPLC; format: in vitro ADME, C57BL/6 mice; details: 50 μM, 37 °C
Method: The stability of the target compounds was tested first, and excellent stability was essential for physiological function evaluation. Phosphate-buffered saline (PBS) of different pH values was used to evaluate the stability of the target compounds in a weakly acidic tumor microenvironment (pH 6.5) versus a weakly alkaline normal physiological environment (pH 7.4). […] The stability of the target compounds in mouse and rat plasma was excellent. The concentrations of all target compounds remained at >80% of the initial concentrations after 24 h, with the concentrations of compounds 1c, 2c, and 3c being 89%, 88%, and 83% in mouse plasma and 86%, 84%, and 81% in rat plasma, respectively (Figure 3c,d).
PBS (pH 7.4) was made with 137 mM NaCl, 2.7 mM KCl, 10 mM Na2HPO4, and 1.8 mM KH2PO4, while PBS (pH 6.5) was made with 24.6 mM Na2HPO4 and 175.4 mM NaH2PO4. The target compounds were dissolved into the different buffers (50 μM; 1% DMSO), and the mixtures were incubated at 37 °C. A 100-μL sample was transferred to a vial for HPLC analysis at 1, 2, 4, 8, 12, and 24 h. C57BL/6 mice and SD rat orbital whole blood was collected into anticoagulation tubes and centrifuged at 4000× g for 5 min at 4 °C to obtain plasma. The target compounds were dissolved into the plasma (50 μM; 1% DMSO) and incubated at 37 °C. Each sample (100 μL) was collected and precipitated using 100 μL of acetonitrile. The mixture was vortexed for 5 min and centrifuged at 10,000× g for 10 min. The supernatant was transferred to a vial for HPLC analysis after 1, 2, 4, 8, 12, and 24 h.

[4] = system: HT29 colon cancer cells; experiment: In vivo antitumor activity in HT29 tumor-bearing mice
Method: Compound 2c, which has excellent stability, a high metabolic rate, and strong cytotoxicity under NTR conditions in vitro, was selected for the in vivo evaluation of antitumor activity in tumor-bearing mice. Tumor-bearing mice were generated by the axillary injection of HT29 colon cancer cells into C57BL/6 mice. When the tumors grew to approximately 100–150 mm^3, the mice were randomly divided into negative control (vehicle), compound 2c (50 mg/kg), and positive control 5′-DFUR (50 mg/kg) groups (n = 6 each). The mice were injected intraperitoneally every 2 days for 4 weeks, and the tumor volume and body weight of the mice were measured every 2 days. No death occurred in any group of mice during the experimental period.
Four-week-old C57BL/6 mice were purchased from Jinan Pengyue Experimental Animal Breeding Co. Ltd. (Jinan, China). The mice were housed in cages under a 12-h light/dark cycle from 7:00 to 19:00 at controlled temperatures (25–26 °C) and relative humidity (50 ± 10%) throughout the experimental period. All animals were allowed to eat and drink freely unless otherwise stated and allowed to acclimate for 1 week before the experiment. All animal experimental protocols were performed in accordance with applicable institutional and governmental regulations concerning the ethical use of animals (AP2024022954).
The tumor-bearing mice model was established by the subcutaneous injection of HT29 cells (1 × 10^7 cells/mL) purchased from the National Collection of Authenticated Cell Cultures to the right axilla of C57BL/6 mice (100 µL/mouse). When the tumor size reached 100–150 mm^3, the mice were evenly divided into negative control (vehicle), group 2c (50 mg/kg), and 5′-DFUR (50 mg/kg) groups (n = 6 each). Compound 2c and 5′-DFUR were dissolved in a solution containing 10% ethanol, 10% castor oil, and 80% saline that also served as the negative control. The mice were injected intraperitoneally every 2 days for 4 weeks, and the tumor volumes and body weights of the mice were measured every 2 days. Tumor volume was calculated using the following formula: tumor volume = length (mm) × width (mm) × width (mm) × 0.5. The TGI rate was determined as follows: TGI = 1 − (treatment final volume − treatment initial volume)/(control final volume − control initial volume) × 100%.

[5] = medium with NTR and NADH 2 mM, read-out: IC50 NTR
[6] = medium without NTR, read-out: IC50 NTR-Free

With `C[C@H]1O[C@@H](n2cc(F)c(=O)n(Cc3ccc([N+](=O)[O-])o3)c2=O)[C@H](O)[C@@H]1O` [Compound 2c] the “IC50 (NTR-Free)/ IC50 (NTR)” value ([1]; HT29, selectivity ratio) was 7.62, the IC50 [1, 5] was 57.4 µM and the IC50 [1, 6] was 437 µM. The IC50 [2, 5] was 80.3 µM, the IC50 [2, 6] was 400 µM and the “IC50 (NTR-Free)/ IC50 (NTR)” value ([2]; MCF-7, selectivity ratio) was 4.99. The “concentration relative to initial concentration after 24 h in mouse plasma” value [3] was 88%, the “drug-related toxic reactions (in words)” value ([4]; 50 mg/kg i.p. every 2 days for 4 weeks) was “No significant drug-related toxic reactions were observed” and the “body weight of mice (in words)” value ([4]; 50 mg/kg i.p. every 2 days for 4 weeks, versus positive control 5′-DFUR group) was “smaller weight fluctuations and were slightly higher than those of the positive control group”. For the same compound, the “tumor growth inhibition (TGI) rate” value ([4]; 50 mg/kg intraperitoneally every 2 days for 4 weeks, HT29 tumor-bearing C57BL/6 mice) was 77.5%.

— article PMC11547703, “Design, Synthesis, and Evaluation of Doxifluridine Derivatives as Nitroreductase-Responsive Anticancer Prodrugs” (Molecules, 2024)
